Measurements from patent US20020165119A1, “Method of treating inflammatory conditions by inhibiting cytosolic phospholipase A2” (priority 2001, published 2002).
Entries after “also recorded” stand apart in the source; their conditions may differ. Numbered stars: 1 amine (or outer) side, 2 acyl side, 3 side chain; on linkers, the order of the positions; unused ones are H or OH. Bridge positions count the residues as written; N and C are the ends. Square brackets hold non-standard residues; d marks the D form. Peptide text beside a SMILES is read from it. X1 = CC(C)CCCCCCCCC[C@H](CC(=O)[*:1])O[*:2]

Tests used:
[1] = test system: OA-sensitized guinea pigs; experiment: Bronchoalveolar lavage cell counts after antigen challenge; assay type: in vivo, guinea pig; conditions: for eosinophil count in BAL fluid: after ovalbumin challenge; for BAL eosinophils: 24 h after OA-challenge; for airway eosinophil influx after antigen challenge: guinea pig, in vivo
Description: Analysis of Bronchoalveolar Cells
(§1) After assessment of antigen-induced airway hyperresponsiveness or 24 h after IL-5 injection, airway inflammation was assessed. Immediately before and 1, 24, 48, and 72 h after antigen challenge, bronchoalveolar lavage (BAL) was performed to determine the time-course of cellular infiltration into airways. Two aliquots of 10 ml sterile 37° C. saline were infused into the tracheal cannula. The BAL fluid was recovered manually by gentle aspiration with a disposable syringe after each infusion. The total cell number was determined using a Turk solution. Differential cell counts were performed on cytospin preparations (Cytospin 2, Shandon, England) by counting 300 cells after staining by the May-Grüwald-Giemsa method in a single-blind method.

[2] = test system: OA-sensitized guinea pigs; experiment: Antigen-induced bronchoconstriction: specific airway resistance (sRaw) after ovalbumin challenge; assay type: in vivo, guinea pig; conditions: for sRaw: drug alone; for increase in sRaw caused by OA challenge (immediate bronchoconstriction): pre-treatment i.p. 60 min before antigen challenge
From the text: Male albino Hartley strain guinea pigs were obtained from Sankyou Laboratory Service (Toyama, Japan), and were quarantined in the Animal Research Center of Kanazawa University for 1 wk before study. All animal procedures in this study complied with the standards specified in the Guideline for the Care and Use of Laboratory Animals at the Takara-machi Campus of Kanazawa University.
(§2) Guinea pigs weighing 200 to 250 g were actively sensitized by a modification of the method reported by Andersson et al., Int. Arch. Allergy Appl. […] Guinea pigs were pretreated with an i.p. injection of 30 mg/kg of cyclophosphamide. Two days later, the animals were immunized with 2.0 mg of ovalbumin and 100 mg of aluminum hydroxide [Al(OH)3]. A booster injection of 10 μg of OA together with 100 mg of Al(OH)3 was given 3 wk after the primary immunization.
Animals were placed in a whole-body, double-chamber plethysmograph for measurement of specific airway resistance (sRaw) by a modification of the method described by Pennock et al., Appl. […] A respiratory mechanics analyzer (model PMUA+SAR, Buxco Electronics, Troy, N.Y.) was used to measure the phase shift between nasal and thoracic airflow and to compute sRaw on a breath by breath basis. A bias flow of air (20 ml/sec) was maintained through the nasal chamber to ensure a constant supply of fresh air to the animal. The analyzer subtracted this flow from its calculations. […] The nebulizer output was 0.14 ml/min. Baseline measurement of sRaw was obtained in all groups 5 min before antigen challenge.

[3] = test system: OA-sensitized guinea pigs; experiment: Antigen-induced airway hyperresponsiveness to methacholine (PC200); assay type: in vivo, guinea pig; conditions: for antigen (ovalbumin)-induced methacholine airway hyperresponsiveness: 24 h after OA challenge; for baseline airway responsiveness to methacholine: drug alone
Description: as §2
Antigen-Induced Airway Hyperresponsiveness to Methacholine
Antigen-induced airway response to methacholine was measured 24 h after challenge. Guinea pigs were anaesthetized by an i.p. injection of 75 mg/kg of sodium pentobarbitone and were placed in a supine position. […] Exp. Path. […] After completion of all surgical procedures, the lungs were overinflated by two times tidal volume for two breaths by closing the outlet port of the respirator. This was done to standardize the volume history of the lungs. […] See Minami et al., Jpn.
Airway responsiveness to inhaled methacholine was expressed as the dose of methacholine required to provoke a 200% increase (PC200) in the Pao. Values for PC200 were logarithmically transformed for analysis and reported as the geometric mean [geometric SEM (GSEM)]. All measurements except for PC200 were expressed as mean±SEM. Variation between three or more groups was analyzed using analysis of variance (ANOVA) followed by Fisher's protected least significant difference. Variation between two groups was tested using Student's t test. A value of p<0.05 was accepted as an indication of statistical significance.

guinea pigs = experiment: IL-5-induced airway eosinophil accumulation (BAL); assay type: in vivo, guinea pig; conditions: for BAL eosinophils: 24 h after IL-5 treatment; for airway eosinophil influx after treatment with IL-5: guinea pig, in vivo
Description: IL-5-Induced Airway Eosinophil Accumulation
Guinea pigs weighing 350 to 400 g were treated i.p. before IL-5 injection with TFMK (20 mg/kg), E6123 (0.1 mg/kg), or vehicle (n=7 in each group). Animals were lightly anesthetized with diethyl ether inhalation, and then 200 μl sterile PBS containing 20 ng IL-5 was intranasally injected into the airway.
as §1

cPLA2 = molecular target: T1, cPLA2 (Homo sapiens, UniProt P47712); conditions: Zhu et al., J. Immunol. 163:3423-3429, 1999; cited from earlier work
T1 sequence (P47712 1-749): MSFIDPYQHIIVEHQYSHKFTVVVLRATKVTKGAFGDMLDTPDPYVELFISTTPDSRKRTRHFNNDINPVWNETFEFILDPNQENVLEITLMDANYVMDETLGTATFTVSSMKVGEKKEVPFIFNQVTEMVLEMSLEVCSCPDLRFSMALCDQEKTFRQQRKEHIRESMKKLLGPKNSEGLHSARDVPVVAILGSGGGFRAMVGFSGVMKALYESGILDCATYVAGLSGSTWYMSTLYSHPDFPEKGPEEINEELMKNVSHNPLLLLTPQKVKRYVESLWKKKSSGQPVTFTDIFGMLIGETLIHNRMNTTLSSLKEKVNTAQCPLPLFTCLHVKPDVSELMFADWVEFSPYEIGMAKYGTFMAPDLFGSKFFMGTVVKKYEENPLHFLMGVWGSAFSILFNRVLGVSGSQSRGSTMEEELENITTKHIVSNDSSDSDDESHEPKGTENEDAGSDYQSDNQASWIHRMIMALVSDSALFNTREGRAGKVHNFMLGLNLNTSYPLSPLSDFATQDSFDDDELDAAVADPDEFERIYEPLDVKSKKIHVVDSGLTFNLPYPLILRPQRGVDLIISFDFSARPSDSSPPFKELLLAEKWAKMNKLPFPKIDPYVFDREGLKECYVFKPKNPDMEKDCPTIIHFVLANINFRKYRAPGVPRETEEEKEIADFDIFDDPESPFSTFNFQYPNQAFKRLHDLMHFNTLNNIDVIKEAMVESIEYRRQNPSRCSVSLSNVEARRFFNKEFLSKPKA

bronchial airways = experiment: Lung histology after ovalbumin challenge; assay type: in vivo, guinea pig; conditions: 2-20 mg/kg TFMK, 24 h
From the text: After washing with sterile saline, the lung was fixed by perfusion with 10% formalin. Lung sections were stained with hematoxylin and eosin.

[4] = test system: TXB2 production from whole blood; experiment: Effect of i.p. TFMK on TXB2 production ex vivo (FMLP/CB-stimulated whole blood); assay type: in vivo, guinea pig; conditions: FMLP 10^−6 M + 5 μg/ml cytochalasin B; after 20 mg/kg i.p. TFMK
Description: Effect of i.p. TFMK on TXB2 Production ex vivo
Sixty min after TFMK (20 mg/kg or vehicle i.p.; n=4 in each group), guinea pigs were anesthetized and heparinized blood (20 U/ml) was obtained via right carotid artery. Duplicate 1-ml aliquots of whole blood were incubated first with 5 μg/ml CB for 2 min and subsequently with 10^−6 M FMLP for 30 additional min at room temperature. Control samples from the same animals were incubated with buffer alone. Immediately after centrifugation, TXB2 was measured by enzyme immunoassay using reagents obtained from Cayman Chemical (Ann Arbor, Mich.).

Row | Compound | eosinophil count in BAL fluid [1] | sRaw [2] | increase in sRaw caused by OA challenge (immediate bronchoconstriction) [2] | antigen (ovalbumin)-induced methacholine airway hyperresponsiveness [3] | baseline airway responsiveness to methacholine [3] | BAL eosinophils [1] | airway eosinophil influx after antigen challenge [1] | BAL eosinophils (guinea pigs) | airway eosinophil influx after treatment with IL-5 (guinea pigs) | further results
1 | CC1=C(C)C(=O)C(CCCCC#CCCCC#CCO)=C(C)C1=O [AA-861] | no effect | – | – | – | – | – | – | – | – | –
2 | Cc1nnc2n1-c1sc3c(c1C(c1ccccc1Cl)=N[C@H]2C)CCN(C(=O)C1CC1)C3 [E6123] | – | neither drug alone had any effect | not attenuated | complete blockade | not altered; also recorded: neither drug alone had any effect | 1.6±0.6 ×10^5/ml | dose-dependently blocked | 0.4±0.1 ×10^5/ml | dose-dependently blocked | BAL total cell number (guinea pigs; after IL-5 treatment): 3.3±0.4 ×10^5/ml
3 | CC(C)CCCCCCCCC[C@@H]1CC(=O)N[C@@H](CCC(=O)O)C(=O)N[C@@H](CC(C)C)C(=O)N[C@H](CC(C)C)C(=O)N[C@@H](C(C)C)C(=O)N[C@@H](CC(=O)O)C(=O)N[C@H](CC(C)C)C(=O)N[C@@H](CC(C)C)C(=O)O1 [Surfactin] (EL[dL]VD[dL]L; linker N-C via X1) | – | – | – | – | – | – | – | – | – | activity of cPLA2 (cPLA2): inhibit or reduce the activity
4 | CCCCC/C=C\C/C=C\C/C=C\C/C=C\CCCC(=O)C(F)(F)F [TFMK, arachidonic trifluoromethyl ketone] | – | neither drug alone had any effect | not attenuated | – | not altered; also recorded: neither drug alone had any effect | 2.1±0.7 ×10^5/ml | dose-dependently blocked | 0.7±0.2 ×10^5/ml | dose-dependently blocked | PC200 (provocative concentration of methacholine causing a 200% increase in Pao) ([3]; antigen challenged animals pretreated with 20 mg/kg TFMK, 24 h after challenge, geometric mean (GSEM)): 218 ± 0.08 µg/mL; inflammatory cell infiltration in epithelial layer and lamina propria (histology) (bronchial airways): blocked cell infiltration progressively; increase in stimulated TXB2 production from whole blood [4]: 13.5±10.5%
5 | CC(C)(C)c1ccc(C(=O)CCCN2CCC(OC(c3ccccc3)c3ccccc3)CC2)cc1 [ebastine] | – | – | significantly attenuated | had no effect | – | – | – | – | – | –
6 | COc1ccc2c(c1)c(CC(=O)O)c(C)n2C(=O)c1ccc(Cl)cc1 [indomethacin] | no effect | – | not attenuated | neither indomethacin, a COX inhibitor, nor AA861, a 5-LO inhibitor, blocked | – | – | – | – | – | –
